Results published in patent US20240173432A1, “Compositions and Methods for Treatment of Myotonic Dystrophy Type 1 with CRISPR/SluCas9” (Vertex Pharmaceuticals Incorporated, priority 2021, published 2024).

Columns and labels:
[1] = tested on: 3′ UTR of the human DMPK gene; assay: Single-cut screening: indel editing efficiency by Sanger sequencing and ICE analysis in primary DM1 patient myoblasts; format: cell-based; details: vehicle-treated samples; for indel efficiency (Sanger sequencing and ICE analysis): single-cut, SluCas9 RNP, 72 hrs post nucleofection, wild-type allele; for Indel efficiency: single SluCas9 sgRNA RNP in primary DM1 patient myoblasts, Sanger sequencing and ICE analysis
Method in brief: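 Indels were estimated by ICE from Sanger chromatograms of PCR amplicons covering the DMPK 3′ UTR wild-type allele, using only vehicle-treated samples; sgRNAs with R2<0.9 are flagged. Samples came from primary DM1 patient myoblasts (2 × 10^5) harvested 72 h after nucleofection with 30 pmol SluCas9 and 90 pmol single sgRNA RNP.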

[2] = tested on: CUG foci in primary DM1 patient myoblasts; assay: Single-cut screening: FISH staining of CUG RNA foci; format: cell-based, human; details: for frequency of CUG foci free myoblast nuclei (foci number per nucleus=0) / frequency of myoblast nuclei that contain more than three CUG foci: RNA foci distribution analysis (FIG. 6A-B); for % of CUG foci free nuclei (DNA-PKi) / % of CUG foci free nuclei (Vehicle): single sgRNA, primary DM1 patient myoblasts; for % of CUG foci free nuclei (DNA-PKi): DNA-PKi treated
Method in brief: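 CD56-purified primary DM1 patient myoblasts nucleofected with SluCas9:sgRNA RNP (30:90 pmol, single-cut), then DMSO or 3 μM DNA-PK inhibitor for 48 h. At 72 h post-nucleofection, cells fixed and stained for CUG foci with Cy3-PNA(CAG)5 probe (1 ng/μL, 80 °C), co-stained for MBNL1 and Hoechst, imaged by high-content confocal microscopy.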

Substance	indel efficiency (Sanger sequencing and ICE analysis) [1]	frequency of CUG foci free myoblast nuclei (foci number per nucleus=0) [2]	frequency of myoblast nuclei that contain more than three CUG foci [2]	% of CUG foci free nuclei (DNA-PKi) [2] [%]	% of CUG foci free nuclei (Vehicle) [2] [%]	percentage of CUG foci free nuclei ([2]; single-cut, DNA-PKi treatment (3 μM Compound 6, 48 hrs)) [%]	Indel efficiency [1] [%]
ATGGGCAAACTGCAGGCCTGGG (listed as DNA, chemistry not fully specified) [SluD14]	high editing IN4DEL efficiency	increased the frequency	reduced the frequency	81.82	53.12	81.82	
GCCCCGTTGGAAGACTGAGTGC (listed as DNA, chemistry not fully specified) [SluU08]	high editing IN4DEL efficiency			61.56	31.42		87
gggcTCGAAGGGTCCTTGTAGC (as printed in the source, key not given here) [SluU64]	high editing IN4DEL efficiency			67.39	37.58		59
ggggcTCGAAGGGTCCTTGTAG (as printed in the source, key not given here) [SluU63]	high editing IN4DEL efficiency	increased the frequency	reduced the frequency	70.99	44.78		
